Measured values: patent US20230355727A1, “TREATMENT OF RETINAL DISORDERS” (Tel HaShomer Medical Research Infrastructure and Services …, priority 2020, published 2023)
“Also recorded” adds a separate entry of the source. Peptide text beside a SMILES is read from it. * marks the point of attachment. Tos = Cc1ccc(S(=O)(=O)*)cc1; CH2Cl = ClC*

Experiments:
[1] = system: STZ-induced diabetic C57BL/6 mice; test: Retinal function by ERG in STZ-induced diabetic mice; format: in vivo, mouse
Description: Diabetes induction: Diabetes was induced in mice at age of 8 weeks by a single intraperitoneal injection of 150 mg/Kg STZ (Sigma-Aldrich). Blood glucose concentration was measured from the tail vein using Xpress-i glucometer (Nova Biomedical). Hyperglycemia was defined as blood glucose >[…] [Shavit-Stein et al. (2019) PLoS One 14, e0219453].
Electroretinogram (ERG): Mice were dark-adapted for 16 hours. ERG responses to light flashes at 5 increasing intensities (0.023, 0.249, 2.44, 7.8 and 23.5 cd-s/m^2) are recorded from both eyes simultaneously. Light-adapted ERG is similarly performed following 5 minutes light adaptation [Edelshtain et al. (2019) Algal Research 43, 101607].
C57BL/6 mice received either sham (PBS, n=5) or PARIN5 (100 nM in PBS, n=7) treatment for 7 days, starting at three days after diabetes induction by STZ injection. Retinal function was determined by ERG. Treatment included intraperitoneal (IP) injection (0.5 µl/gram, once a day) and eye drops (10 µl/eye, once a day).
In further experiments, STZ-induced diabetic were treated with eye drops, 100 nM PARIN5 in PBS (10 µl/eye, once a day), for 5 weeks. Non-diabetic mice and diabetic non-treated mice served as control.

glioma cell lines = details: inhibition of thrombin activity and blocking PAR1 activation; Shavit-Stein et al. 2018; cited from earlier work
diabetic rats = details: STZ-induced diabetes; Shavit-Stein et al. PLoS One 2019; cited from earlier work
ALS animal model SOD-1 = details: SOD-1 ALS animal model; cited from earlier work

Compound: Cc1ccc(S(=O)(=O)N[C@H](C(=O)N[C@@H](CC(C)C)C(=O)N[C@@H](CC(=O)O)C(=O)N2CCC[C@H]2C(=O)N[C@@H](CCCNC(=N)N)C(=O)CCl)[C@@H](C)O)cc1 [PARIN5, ^37TLDPR^41-CMK] (Tos-TLDPR-CH2Cl)
- Retinal function by ERG b-wave after 5 weeks of daily eye drops, versus control non-diabetic mice ([1]; 100 nM in PBS eye drops, 10 µl/eye once a day, 5 weeks, measured 2 and 5 weeks after STZ, all p>0.3, FIG. 6): no significant differences; also recorded: protected the mouse retinal function
- Retinal function by ERG (b-wave) after 7-day treatment ([1]; 100 nM in PBS, IP injection 0.5 µl/gram plus eye drops 10 µl/eye, once a day, 7 days, from three days after STZ, versus sham PBS, FIG. 5): preserved mouse retinal function

Compound: N=C(N)c1ccc(CC(NC(=O)CNS(=O)(=O)c2ccc3ccccc3c2)C(=O)N2CCCCC2)cc1 (racemic) [NAPAP, Nα-(2-naphthyl-sulphonyl-glycyl)-DL-p-amidinophenylalanyl-piperidine]
- Growth of glioma cell lines (glioma cell lines): significantly inhibits their growth
- Nerve conduction velocity in diabetic rats (diabetic rats): prevent the decreased nerve conduction velocity

Compound: CC(C)c1ccc(Cn2ccc3c4c(N)nc(NC5CC5)nc4ccc32)cc1.Cl.Cl [SCH79797, N3..Cyclopropyl-7..[[4..(1.. methylethyl)phenyl]methyl]-7H-pyrrolo[3,2-f]quinazoline-1,3-diamine dihydrochloride]
- Life span of ALS model animals (ALS animal model SOD-1): increase the life span of these ALS model animals significantly

Compound: Cc1ccc(S(=O)(=O)N[C@@H](CCCCN)C(=O)CCl)cc1 [TLCK, N-alpha-tosyl-L-lysine chloromethyl ketone]
- Life span of ALS model animals (ALS animal model SOD-1): increase the life span of these ALS model animals significantly
